# Source: patent US20250188042A1, “HETEROCYCLIC COMPOUND, PREPARATION METHOD THEREFOR, AND USE THEREOF” (SICHUAN UNIVERSITY, priority 2023, published 2025)
# System: SCC cells
# Experiment: CCK8 proliferation assay on SCC cells (cell line not specified)
# Assay type: cell-based
# Details: SCC cell line not stated (HSC-3 or HSC-4), 48 h, read-out: IC50 against SCC cells
# Description: (§1) Squamous cell carcinoma cell lines: HSC-3, HSC-4.
# (§2) The above two tumor cell lines were cultured in a standardized incubator at 37° C. under 5% CO2; the cells in logarithmic growth phase were digested and counted, followed by seeding in a 96-well plate at 3000 cells/well, and then cultured overnight in an incubator. The stock solution of each compound was prepared using DMSO at a concentration of 10 mM, and diluted sequentially (0, 1.25, 2.5, 5, 10 μM) before treating the cells. The control group was added with the highest concentration of DMSO, and then cultivated continuously in an incubator for 48 h. The CCK8 cell proliferation kit was used to detect the effect of each compound on the proliferation of tumor cells. Moreover, the experimental results of representative compounds were analyzed, and their IC50 values were calculated to evaluate the effect of the compounds on the proliferation of tumor cells.
row,SMILES,IC50 [µM]
1,Nc1ccn(CCC(=O)Nc2ccc(C34CC5CC(CC(C5)C3)C4)cc2)c(=O)n1 [Compound 24],1.48
2,N#Cc1cn(CCC(=O)Nc2ccc(C34CC5CC(CC(C5)C3)C4)cc2)c(=O)n(CCC(=O)Nc2ccc(C34CC5CC(CC(C5)C3)C4)cc2)c1=O [Compound 12a],9.54
3,O=C(CCn1cc(I)c(=O)n(CCC(=O)Nc2ccc(C34CC5CC(CC(C5)C3)C4)cc2)c1=O)Nc1ccc(C23CC4CC(CC(C4)C2)C3)cc1 [Compound 20a],4.86
4,O=C(CCn1cc(Cl)c(=O)n(CCC(=O)Nc2ccc(C34CC5CC(CC(C5)C3)C4)cc2)c1=O)Nc1ccc(C23CC4CC(CC(C4)C2)C3)cc1 [Compound 16a],9.66
5,O=C(CCn1cc(Br)c(=O)n(CCC(=O)Nc2ccc(C34CC5CC(CC(C5)C3)C4)cc2)c1=O)Nc1ccc(C23CC4CC(CC(C4)C2)C3)cc1 [Compound 18a],4.85
6,CCc1cn(CCC(=O)Nc2ccc(C34CC5CC(CC(C5)C3)C4)cc2)c(=O)n(CCC(=O)Nc2ccc(C34CC5CC(CC(C5)C3)C4)cc2)c1=O [Compound 10a],6.18
7,COc1cn(CCC(=O)Nc2ccc(C34CC5CC(CC(C5)C3)C4)cc2)c(=O)n(CCC(=O)Nc2ccc(C34CC5CC(CC(C5)C3)C4)cc2)c1=O [Compound 14a],6.18

# System: HSC-3
# Experiment: CCK8 proliferation assay on squamous cell carcinoma cell line HSC-3
# Assay type: cell-based
# Details: Homo sapiens, first of two lines listed (HSC-3, HSC-4), 48 h, read-out: IC50 against SCC cells (first of two SCC cells)
# Description: as §1, §2
row,IC50 [µM],SMILES
1,4.85,O=C(CCn1ccc(=O)n(CCC(=O)Nc2ccc(C34CC5CC(CC(C5)C3)C4)cc2)c1=O)Nc1ccc(C23CC4CC(CC(C4)C2)C3)cc1 [Compound 8a]

# System: HSC-4
# Experiment: CCK8 proliferation assay on squamous cell carcinoma cell line HSC-4
# Assay type: cell-based
# Details: Homo sapiens, second of two lines listed (HSC-3, HSC-4), 48 h, read-out: IC50 against SCC cells (second of two SCC cells)
# Description: as §1, §2
row,IC50 [µM],SMILES
1,9.87,O=C(CCn1ccc(=O)n(CCC(=O)Nc2ccc(C34CC5CC(CC(C5)C3)C4)cc2)c1=O)Nc1ccc(C23CC4CC(CC(C4)C2)C3)cc1 [Compound 8a]
